From publication PMC3034713, “Targeting Vascular NADPH Oxidase 1 Blocks Tumor Angiogenesis through a PPARα Mediated Mechanism” (PLoS ONE, 2011)

Columns and labels:
NOX1 = target: T1, NOX1 (Homo sapiens, UniProt Q9Y5S8); experiment: NOX inhibition in cell free assay, membranes from cells overexpressing NOX1 (Amplex Red ROS); type: biochemical
T1 construct: expressed in transfected cells
T1 sequence (Q9Y5S8 1-564): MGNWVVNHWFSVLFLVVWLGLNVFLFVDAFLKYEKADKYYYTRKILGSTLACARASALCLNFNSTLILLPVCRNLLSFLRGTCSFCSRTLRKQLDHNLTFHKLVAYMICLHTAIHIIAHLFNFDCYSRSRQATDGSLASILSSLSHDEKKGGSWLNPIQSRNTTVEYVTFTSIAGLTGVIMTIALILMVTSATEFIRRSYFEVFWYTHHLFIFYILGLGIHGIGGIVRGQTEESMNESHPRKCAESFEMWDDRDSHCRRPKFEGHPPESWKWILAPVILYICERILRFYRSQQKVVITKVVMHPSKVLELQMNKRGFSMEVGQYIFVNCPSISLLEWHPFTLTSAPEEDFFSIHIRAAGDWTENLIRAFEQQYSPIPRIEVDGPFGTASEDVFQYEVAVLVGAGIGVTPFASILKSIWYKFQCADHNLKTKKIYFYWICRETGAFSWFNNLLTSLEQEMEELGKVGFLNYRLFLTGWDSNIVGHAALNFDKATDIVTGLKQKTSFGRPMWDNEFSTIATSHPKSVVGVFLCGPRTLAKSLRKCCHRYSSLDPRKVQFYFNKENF
T1 sequence (P13498 2-195 partner limits assumed): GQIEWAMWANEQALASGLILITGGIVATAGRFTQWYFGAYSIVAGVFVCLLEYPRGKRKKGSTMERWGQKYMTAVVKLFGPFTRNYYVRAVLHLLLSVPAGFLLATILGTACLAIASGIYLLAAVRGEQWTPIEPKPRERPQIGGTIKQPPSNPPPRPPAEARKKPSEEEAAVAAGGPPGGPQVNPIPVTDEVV
Experimental: Membranes from NOX2 expressing PMN cells or from cells overexpressing NOX1 or NOX4 were prepared as previously described. After resuspension in sonication buffer (11% sucrose, 120 mM NaCl, 1 mM EGTA in PBS, pH 7.4 for NOX4-expressing cells) or in relax buffer (10 mM Pipes, 3 mM NaCl, 3.5 mM MgCl2, 0.1 M KCl, pH 7.4), cells were broken by sonication and centrifuged (200 g, 10 min). The supernatant was loaded onto a 17/40% (w/v) discontinuous sucrose gradient and centrifuged (150,000 g for 30 min). Membrane fractions were collected and stored at −80°C. ROS production measurements of membranes expressing different NOX subunits was determined as previously described using the Amplex Red method (Invitrogen).

xanthine oxidase [1] = target: T2, xanthine oxidase (Homo sapiens, UniProt P47989); experiment: Xanthine oxidase inhibition, concentration-response; type: biochemical
cNos = experiment: Pharmacological profiling (Cerep), Table S1; type: biochemical
[2] = test system: murine and human endothelial cells (MLEC, HUVEC, mouse endothelioma); experiment: ROS measurement with DHE in endothelial cells stimulated with VEGF or bFGF; type: cell-based; conditions: 10 µM
Experimental: Endothelial cells were seeded on glass slides and stained with dihydroethidium (DHE). Images were captured with an inverted microscope and analyzed with Metafluor imaging software (MDS Analytical Technologies). Quantification was performed by measuring the fluorescence intensity of over minimum 50 endothelial cells per slide.

B16F0 tumors = experiment: Tumor growth assay, B16F0 injected subcutaneously; type: in vivo, mice; conditions: 40 mg/kg/day oral for 8 days
Experimental: 5. 10^5 of LLC1 or B16F0 were injected subcutaneously on the back of mice. Mice were treated with NOX inhibitor, GKT136901 or vehicle (Carboxymethyl-cellulose, CMC) at 40 mg/kg everyday per os or i.p with anti-VEGFR2 antibody (DC101) at 0.8 mg every 2 days. When the control tumor reached approximately 1 cm in length, mice were sacrificed and the tumor excised, weighed and frozen. Frozen sections of tumors were stained with anti-PECAM-1 antibody (rat monoclonal, [74]).

LLC1 = experiment: ROS production by tumor cells (DHE substrate); type: cell-based; conditions: 10 μM, 1h
Experimental: Supplementary file pone.0014665.s008.tif: Figure S7 Effect of GKT 136901 on tumor cells. a. LLC1 and B16F0 cell proliferation was measured by EdU incorporation and propidium iodide staining of DNA content, 24h after incubation with 10 μM of GKT136901. b. LLC1 apoptosis was measured by AnnexinV/PI staining after 24h of incubation with 10 μM of GKT136901. c. ROS levels produced by LLC1 are inhibited by GKT136901. ROS production was quantified by DHE substrate 1h after incubation with 10 μM of the inhibitor. *** p<0.001 (student t-test). (6.11 MB TIF) Click here for additional data file.

xanthine oxidase [3] = target: T2, xanthine oxidase; experiment: Pharmacological profiling (Cerep), Table S1
iNoS = iNoS (Homo sapiens, UniProt P35228); experiment: Pharmacological profiling (Cerep), Table S1
PI3K a, b, d, g = experiment: Pharmacological profiling (Cerep), Table S1

T2 sequence (P47989 whole entry, species assumed): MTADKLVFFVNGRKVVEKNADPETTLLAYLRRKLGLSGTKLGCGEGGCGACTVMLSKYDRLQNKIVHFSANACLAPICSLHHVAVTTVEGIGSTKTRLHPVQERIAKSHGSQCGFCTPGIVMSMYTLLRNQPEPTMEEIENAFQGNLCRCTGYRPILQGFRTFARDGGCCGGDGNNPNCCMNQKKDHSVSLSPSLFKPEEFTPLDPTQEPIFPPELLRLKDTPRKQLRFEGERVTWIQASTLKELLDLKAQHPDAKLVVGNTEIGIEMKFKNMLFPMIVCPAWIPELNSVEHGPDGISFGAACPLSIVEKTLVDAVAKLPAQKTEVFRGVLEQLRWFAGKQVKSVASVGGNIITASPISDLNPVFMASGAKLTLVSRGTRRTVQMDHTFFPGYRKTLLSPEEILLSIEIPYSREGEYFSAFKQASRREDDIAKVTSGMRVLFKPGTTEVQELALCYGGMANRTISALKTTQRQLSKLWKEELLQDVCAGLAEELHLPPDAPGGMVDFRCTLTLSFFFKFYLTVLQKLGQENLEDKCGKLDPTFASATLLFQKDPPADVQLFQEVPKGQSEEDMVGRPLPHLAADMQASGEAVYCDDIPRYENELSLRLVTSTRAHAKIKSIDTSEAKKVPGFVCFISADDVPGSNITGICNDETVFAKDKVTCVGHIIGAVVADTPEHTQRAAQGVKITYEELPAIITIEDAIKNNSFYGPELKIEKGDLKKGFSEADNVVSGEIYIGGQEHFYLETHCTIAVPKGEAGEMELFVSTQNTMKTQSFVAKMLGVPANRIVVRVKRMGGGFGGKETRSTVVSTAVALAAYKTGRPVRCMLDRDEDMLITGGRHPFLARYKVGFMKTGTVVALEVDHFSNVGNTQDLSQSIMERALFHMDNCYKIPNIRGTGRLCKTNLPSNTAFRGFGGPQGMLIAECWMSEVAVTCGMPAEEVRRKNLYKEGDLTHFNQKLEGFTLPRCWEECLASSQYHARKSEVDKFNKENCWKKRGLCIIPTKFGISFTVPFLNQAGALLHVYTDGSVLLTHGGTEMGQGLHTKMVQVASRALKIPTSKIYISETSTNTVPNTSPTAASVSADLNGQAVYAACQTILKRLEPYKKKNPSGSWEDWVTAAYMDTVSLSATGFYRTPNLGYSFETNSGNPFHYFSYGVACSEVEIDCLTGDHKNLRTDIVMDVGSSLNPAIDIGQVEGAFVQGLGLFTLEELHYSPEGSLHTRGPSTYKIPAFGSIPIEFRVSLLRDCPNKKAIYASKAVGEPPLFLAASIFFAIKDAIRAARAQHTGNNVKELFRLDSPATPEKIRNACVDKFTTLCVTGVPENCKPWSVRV

## Cc1c2c(=O)n(-c3ccccc3Cl)[nH]c2cc(=O)n1Cc1ccccn1 [GKT136901]
NOX1; Figure S2
  extent of inhibition of oxidase activity of NOX1: completely inhibits
NOX1; cell-free, membranes from NOX1 over-expressing cells
  Ki: 160 ± 10 nM
Xanthine oxidase [1]
  Ki: > 100000 nM
cNos
  % Inhibition at 10 µM: 0%
[2]
  ROS induction after VEGF or bFGF stimulation: did not induce ROS
B16F0 tumors; B16F0 in PPARα deficient mice
  tumor vascularization (PECAM-1), vehicle = 100%: 98% ±24
B16F0 tumors; B16F0 in WT mice
  tumor vascularization (PECAM-1), vehicle = 100%: 64% ±14
LLC1
  ROS levels produced by LLC1: inhibited
Xanthine oxidase [3]
  % Inhibition at 10 µM: 5%
iNoS
  % Inhibition at 10 µM: 0%
PI3K a, b, d, g
  % Inhibition at 10 µM: 0%
